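Where inhibition never reached the appropriate level, the endpoint shown equals the highest concentration tested. Otherwise, values were interpolated linearly from a five-concentration, 48-hour dose response in 96-well plates. Here, GI50 denotes the concentration required for 50% inhibition of growth.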 Active and inactive are the calls of the source. Rule as the data show it: active = GI50 up to about 1.1 µM and inactive = higher.
Tests used:
Assay in all cases: inhibition of tumour cell growth, NCI panel, 48 h
OVCAR-8 = test system: OVCAR-8
SNB-19 = test system: SNB-19
HCT-116 = test system: HCT-116
TK-10 = test system: TK-10
NCI-H226 = test system: NCI-H226
RXF 393 = test system: RXF 393
SF-539 = test system: SF-539
NCI-H460 = test system: NCI-H460
OVCAR-5 = test system: OVCAR-5
K562 = test system: K562
SK-OV-3 = test system: SK-OV-3
MOLT-4 = test system: MOLT-4
HT-29 = test system: HT-29
UACC-62 = test system: UACC-62
SF-268 = test system: SF-268
786-0 = test system: 786-0
T47D = test system: T47D
LOX IMVI = test system: LOX IMVI
PC-3 = test system: PC-3
CCRF-CEM = test system: CCRF-CEM

Measured: GI50

Nc1nc(N)c(N=Nc2ccc([As](=O)(O)O)c(O)c2)c(N)n1
inactive: OVCAR-8 13.7 µM | SNB-19 43.2 µM | HCT-116 7.24 µM | TK-10 16.8 µM | NCI-H226 > 100 µM | RXF 393 7.48 µM | SF-539 17.1 µM | NCI-H460 6.12 µM | OVCAR-5 > 100 µM | K562 11.1 µM | SK-OV-3 36.4 µM | MOLT-4 3.63 µM | HT-29 3.75 µM | UACC-62 31.5 µM | SF-268 55.8 µM | 786-0 20 µM | T47D > 25.2 µM | LOX IMVI 6.67 µM | PC-3 22.7 µM | CCRF-CEM 1.9 µM

O=c1[nH]c2ccccc2c(=O)c2cc3ccccc3cc12
inactive: OVCAR-8 10 µM | SNB-19 12.1 µM | HCT-116 5.78 µM | TK-10 15.7 µM | NCI-H226 16.7 µM | RXF 393 18 µM | SF-539 20.9 µM | NCI-H460 16.4 µM | OVCAR-5 > 100 µM | K562 > 100 µM | SK-OV-3 11.8 µM | MOLT-4 92.9 µM | HT-29 > 100 µM | UACC-62 41.6 µM | SF-268 3.42 µM | 786-0 6.58 µM | T47D > 100 µM | LOX IMVI 27.9 µM | PC-3 > 100 µM | CCRF-CEM 51.5 µM

CC(=O)SC(C[N+](=O)[O-])c1ccc2c(c1)OCO2 (stereo not given)
inactive: OVCAR-8 13.6 µM | SNB-19 9.31 µM | HCT-116 2.31 µM | TK-10 14.4 µM | NCI-H226 18.7 µM | RXF 393 1.9 µM | SF-539 2.37 µM | NCI-H460 11.2 µM | OVCAR-5 7.83 µM | K562 3.38 µM | SK-OV-3 7.24 µM | MOLT-4 2.98 µM | HT-29 2.49 µM | UACC-62 5.62 µM | SF-268 15.9 µM | 786-0 3.64 µM | T47D 17.1 µM | LOX IMVI 1.81 µM | PC-3 12.7 µM | CCRF-CEM 4.8 µM

CC1(C)OC[C@@]2([C@@H]3CC[C@@H](C3)C2(C)C)N1O
inactive: OVCAR-8 > 100 µM | SNB-19 > 100 µM | HCT-116 > 100 µM | TK-10 > 100 µM | NCI-H226 > 100 µM | RXF 393 > 100 µM | SF-539 > 100 µM | NCI-H460 > 100 µM | OVCAR-5 > 100 µM | K562 > 100 µM | SK-OV-3 > 100 µM | MOLT-4 > 100 µM | HT-29 > 100 µM | UACC-62 > 100 µM | SF-268 > 100 µM | 786-0 > 100 µM | T47D > 100 µM | LOX IMVI 92 µM | PC-3 55.8 µM | CCRF-CEM > 100 µM

CNc1ccc(OC)cc1S(=O)(=O)c1ccccc1[N+](=O)[O-]
inactive: OVCAR-8 > 100 µM | SNB-19 > 100 µM | HCT-116 > 100 µM | TK-10 > 100 µM | NCI-H226 > 100 µM | RXF 393 > 100 µM | SF-539 > 100 µM | NCI-H460 > 100 µM | OVCAR-5 > 100 µM | K562 43.2 µM | SK-OV-3 > 100 µM | MOLT-4 27 µM | HT-29 > 100 µM | UACC-62 > 100 µM | SF-268 > 100 µM | 786-0 > 100 µM | T47D 49.8 µM | LOX IMVI > 100 µM | PC-3 52.7 µM | CCRF-CEM 26.7 µM

Cc1nn(-c2ccccc2)c2c1C(c1cc3ccccc3nc1Cl)NC(=O)N2 (stereo not given)
inactive: OVCAR-8 19.3 µM | SNB-19 20.7 µM | HCT-116 23.8 µM | TK-10 28.2 µM | NCI-H226 19.1 µM | RXF 393 18.5 µM | SF-539 19.9 µM | NCI-H460 30.8 µM | OVCAR-5 22.5 µM | K562 2.94 µM | SK-OV-3 20.1 µM | MOLT-4 2.64 µM | HT-29 18.7 µM | UACC-62 19 µM | SF-268 27.4 µM | 786-0 16.7 µM | T47D 59.2 µM | LOX IMVI 19.4 µM | PC-3 19.8 µM | CCRF-CEM 25.8 µM

C=CC/C(C(=O)OC)=C(/C(=O)OC)N(CCC)CCC
inactive: OVCAR-8 > 100 µM | SNB-19 > 100 µM | HCT-116 57.9 µM | TK-10 > 100 µM | NCI-H226 > 100 µM | RXF 393 > 100 µM | SF-539 > 100 µM | NCI-H460 > 100 µM | OVCAR-5 > 100 µM | K562 35.8 µM | SK-OV-3 > 100 µM | MOLT-4 61.8 µM | HT-29 > 100 µM | UACC-62 > 100 µM | SF-268 > 100 µM | 786-0 > 100 µM | T47D > 100 µM | LOX IMVI > 100 µM | PC-3 > 100 µM | CCRF-CEM 36.1 µM

O=c1c2ccccc2nc2sc(/N=C/C=C/c3ccccc3)nn12
inactive: OVCAR-8 > 100 µM | SNB-19 > 100 µM | HCT-116 > 100 µM | TK-10 > 100 µM | NCI-H226 > 100 µM | RXF 393 > 100 µM | SF-539 > 100 µM | NCI-H460 > 100 µM | OVCAR-5 > 100 µM | K562 > 100 µM | SK-OV-3 > 100 µM | MOLT-4 44.9 µM | HT-29 > 100 µM | UACC-62 > 100 µM | SF-268 > 100 µM | 786-0 > 100 µM | T47D > 100 µM | LOX IMVI 56.9 µM | PC-3 > 100 µM | CCRF-CEM 55.5 µM
